{"source": "patent US20080139638A1", "about": "“METHOD OF INCREASING GROWTH HORMONE SECRETION” (priority 2006, published 2008)", "key": {"[1]": {"test_system": "growth hormone secretion", "assay": "Serum growth hormone (ELISA/EIA) after oral melatonin supplementation 60 min before a single bout of resistance exercise (leg press)", "type": "in vivo, human (healthy males)", "text": "Thirty, healthy males who had partaken in regular resistance training for at least one year prior to the study were selected [n=30(22.72±3.28 years, 180.94±6.24 cm in height, and 82.08±9.18 kg in weight)] served as participants in the study. All of the participants passed a mandatory medical screening and were considered either as low or moderate risk or with no contradictions to exercise as outline by the American College of Sports Medicine (ACSM). Furthermore, the participants had not consumed any nutritional supplements, with the exclusion of vitamins, during a two month period prior the experiment.\nParticipants were matched by relative strength level (strength/body weight) and then randomly assigned to one of three different protocols. The supplement protocol consisted of a double-blind with groups receiving either 0.5 mg or 5.0 if melatonin (N-Acetyl-5-methoxytryptamine) or 1.0 mg of dextrose as a placebo. Participants were allowed a light breakfast at 8:00 am, wherein they were asked to record the consumed items, and then were required to fast until 2 pm. Seventy-five minutes prior to each exercise session, (12:30 pm), an intravenous cannula was inserted into a foreman vein. At 60 minutes prior to the exercise session, a baseline blood sample was taken and the participant orally received a supplement of placebo according top that outlined above. During the 60 minutes prior to exercise, the participants were required to rest in a supine position and blood samples were taken every 15 minutes up to the initiation of the resistance exercise. The leg press exercise consisted of 7 sets of 7 slow repetitions at 85% of the weight of the respective participant's one repetition maximum. Each set was preformed over the course of 30 seconds followed by 150 seconds of rest. The entire resistance exercise session was 21 minutes in duration.\nVenous blood samples were obtained into 10 ml vacutainer tubes via a 20 gauge intravenous catheter inserted into a foreman vein after the subcutaneous injection of a topical anesthetic (2% Xylocaine). Following the five hour fast, blood samples were obtained at 15-minute intervals commencing 60 minutes prior to the resistance exercise session and then at 15-minute intervals for 120 minutes following the resistance exercise session. Blood samples were allowed to stand for 10 minutes at room temperature and then centrifuged at 2,400 rpm for 10 minutes. The serum was then separated and stored at (−)20° C. until analysis.\nUsing enzyme-linked immunosorbent assays (ELISA), and enzyme-immunosorbent assays (EIA), serum samples were assayed for growth hormone (Diagnostics Systems Laboratories, Webster, Tex.) using a Wallac Victor-1420 microplate reader from Perkin-Elmer Life Sciences. Boston, Mass. at either 450 or 405 nm respectively. An ultra-sensitive assay with a lower detection limit of 0.66 pg/ml was used to determine the levels of growth hormone without any detectable interference of circulation glycoproteins, GH-dependent peptide hormones, or growth hormone binding protein.\nStatistical analyses were performed using factorial analysis of variance (ANOVA) with repeated measures for each criterion value. Pairwise comparisons were used to differentiate significant differences among the three groups. All statistical procedures were performed using SPSS 11.0 software and a probability level of <0.05 was adopted throughout.\nShort half-life hormones which are highly sensitive to diurnal variations, such as growth hormone, display great variability in the baseline values as was observed. As such, peak serum hormone responses before and after resistance exercise were subtracted from the baseline values of each participant in order to determine the increase in the growth hormone resulting from the treatments."}, "[2]": {"test_system": "growth hormone release", "conditions": "cited from earlier work"}, "[3]": {"test_system": "growth hormone", "conditions": "no exercise, cited from earlier work"}, "[4]": {"test_system": "growth hormone", "conditions": "5.0 mg oral 60 minutes prior to bicycle exercise at 70% VO2max; cited from earlier work"}}, "note": "Entries after “also recorded” stand apart in the source; their conditions may differ. Read-outs that look alike come from different tables or passages of the source."}
{"molecule": "COc1ccc2[nH]cc(CCNC(C)=O)c2c1", "note": "[melatonin, N-Acetyl-5-methoxytryptamine]", "values": [{"measurement": "fold increase in serum growth hormone relative to placebo", "setting": "[1]; 0.5 mg melatonin oral 60 min prior to exercise, post-exercise period", "value": "approximately 3.16 fold"}, {"measurement": "serum growth hormone levels compared to placebo (in words)", "setting": "[1]; 0.5 mg melatonin oral, post-workout period", "value": "statistically significant (p=0.045) elevations"}, {"measurement": "serum growth hormone levels compared to placebo (in words)", "setting": "[1]; 0.5 mg melatonin oral, pre-exercise period", "value": "no statistical difference; also recorded: no significant increase"}, {"measurement": "increase in growth hormone of the 0.5 mg group compared to the 5.0 mg group (in words)", "setting": "[1]; 0.5 mg vs 5.0 mg melatonin oral, post-exercise", "value": "significantly greater increase"}, {"measurement": "serum growth hormone levels compared to placebo (in words)", "setting": "[1]; 5.0 mg melatonin oral, post-workout period", "value": "statistically significant (p=0.045) elevations"}, {"measurement": "serum growth hormone levels compared to placebo (in words)", "setting": "[1]; 5.0 mg melatonin oral, pre-exercise period", "value": "increased relative to placebo"}, {"measurement": "fold increase in serum growth hormone relative to placebo", "setting": "[1]; 5.0 mg melatonin oral, pre-exercise period, peak standardized to baseline", "value": "~2.35", "unit": "fold"}, {"measurement": "effect on basal growth hormone levels", "setting": "[2]; 0.4 mg/kg intravenous", "value": "have been shown to have an effect"}, {"measurement": "effect on basal growth hormone levels", "setting": "[2]; 1 g oral", "value": "have been shown to have an effect"}, {"measurement": "effect on the 24-hr profile of growth hormone concentration", "setting": "[2]; small doses, less than 2 mg, oral", "value": "have not be shown to affect"}, {"measurement": "plasma growth hormone concentrations", "setting": "[3]; 0.5 mg oral", "value": "significant increase"}, {"measurement": "time of peak plasma growth hormone values", "setting": "[3]; 0.5 mg oral", "value": 60, "unit": "min"}, {"measurement": "plasma growth hormone concentrations", "setting": "[3]; 5.0 mg oral", "value": "significant increase"}, {"measurement": "time of peak plasma growth hormone values", "setting": "[3]; 5.0 mg oral", "value": 60, "unit": "min"}, {"measurement": "growth hormone compared to placebo, area under the curve", "setting": "[4]", "value": "significant increases"}, {"measurement": "time of growth hormone peak following exercise", "setting": "[4]", "value": 30, "unit": "min"}]}
